Test results published in US8986712B2, “Peptides derived from HIV-1 gp41 transmembrane domain for t-immunomodulation” (Yeda Research and Development Co., Ltd., priority 2009, dated 2015).
Ends that are not written are not given here.

Key:
[1] = system: T-cell line specific to MOG p35-55; test: T-cell proliferation induced by MOG 35-55 peptide and APC (H3-thymidine uptake); format: cell-based, mice; settings: for cell survival in culture versus PBS control: T cells incubated with peptide
Method: T-cells were plated onto round 96-well plates in medium containing RPMI-1640 supplemented with 2.5% fetal calf serum (FCS), 100 U/ml penicillin, 100 μg/ml streptomycin, 50 μM 2β-mercaptoethanol, and 2 mM L-glutamine. 12×10^4 cells of the T-cell line specific to MOG p35-55, 5×10^5 irradiated (3000 rad) spleen cells (APC), and 10 μg/ml of MOG p35-55 were added to each well. In addition, peptides corresponding to the gp41 TMD region were added. Each determination was made at least in triplicate.
In order to exclude interaction between the examined peptides and the MOG p35-55 antigen, the MOG p35-55 antigen was initially added to the APCs in a test tube, and in a second test tube, the examined peptides were added to the T-cells. After 1 hour, the APCs and the T-cells were mixed and incubated for 72 h in a 96 well round bottom plate.
(§1) For some experiments, T cells were activated with immobilized anti-CD3 antibodies (Kaleeba et al., 1998, Int. Immunol. 10, 453-461) or PMA/ionomycin as described (Wang et al., 2002 Clin. Immunol. 105, 199-207). After 72 hours, at 37° C. in a 7.5% CO2 humidified atmosphere, the T-cells were pulsed with 1 μCi (H^3) thymidine, with a specific activity of 5.0 Ci/mmol, for 7 hours, and (H^3) thymidine incorporation was measured using a 96-well plate beta-counter. The mean cpm±Standard Error was calculated for each triplicate or quadruplicate. The results of T-cell proliferation experiments are shown as the percentage of T-cell proliferation inhibition triggered by the antigen in the absence of gp41 TMD peptides.
Lymph node cells were prepared from MOG 35-55/CFA immunized mice and their T cell response to the MOG 35-55 peptide was studied. T-cells were activated with the MOG 35-55 peptide and APC in the presence of gp41 TMD and TM11-19 (GLVGLRIVF; SEQ ID NO: 6) in three different concentrations (5, 25 and 50 μg/ml) and the proliferative responses was assayed. The T cell line proliferative response was determined after 3 days of incubation using a H3-thymidine uptake assay. […] The uninhibited T-cell proliferative responses were 9382±891 cpm.

[2] = system: T-cells activated with anti-CD3; test: T-cell activation induced by mitogenic anti-CD3 antibodies; format: cell-based, mice; settings: 1 μg/ml anti-CD3 and APC; 50 μg/ml peptide
Method: as §1
Mitogenic anti-CD3 antibodies activate CD3 signaling regardless of the presence or absence of TCR (Keppler et al., 2006, J. Leukoc. Biol. 79, 616-627). Thus, T-cells were activated with 1 μg/ml anti-CD3 and APC in the presence of 50 μg/ml gp41 TMD or gp41 TM11-19, and the proliferative responses were assayed. The TCRα Core Peptide (GLRILLLKV; SEQ ID NO: 37; TCRα CP) served as a control peptide.

[3] = biological target: T1, TLR2 TMD (Homo sapiens, UniProt O60603); test: FRET between NBD labeled peptides and TLR2-Rho in LUVs; format: binding; settings: 100 μM LUVs; peptide 0.4 μM; TLR2-Rho 0.025-0.8 μM
T1 construct: made in house; host or cells: chemical synthesis (Fmoc solid phase, Rink amide resin)
T1 sequence (O60603 589-609 limits assumed): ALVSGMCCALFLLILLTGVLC
Method: (§2) Thin films of PC were generated after dissolving the lipids in a 2:1 (v/v) mixture of CHCL3/MeOH and drying them under a stream of nitrogen gas while rotating them. The films were lyophilized overnight, sealed with argon gas to prevent oxidation of the lipids, and stored at −20° C. Before the experiments, films were suspended in the appropriate buffer and vortexed for 1.5 min. The lipid suspension underwent five cycles of freezing-thawing and extrusion through polycarbonate membranes with 1- and 0.1-μm diameter pores to create large unilamellar vesicles.
(§3) The FRET experiments were performed by using NBD and Rho labeled peptides. Fluorescence spectra were obtained at room temperature, with excitation set at 467 nm (10-nm slit) and emission scan at 500-600 nm (10-nm slits). […] Fluorescence spectra were obtained before and after addition of the Rho labeled peptide. The fluorescence values were corrected by subtracting the corresponding blank (buffer with the same vesicles concentration). […]
The energy transfer from the association of the gp41 TMD and the TLR2 TMD peptides was measured in the presence of 100 μM LUVs. […] As a control, the energy transfer between TLR2 and TAR1p/s (MVLGVFALLPLISGSL; SEQ ID NO:39) was measured. […]

[4] = system: CD3 molecules; test: Co-localization of NBD-labeled peptides with CD3/TCR molecules in T cells (confocal fluorescence microscopy); format: cell-based, mice; settings: NBD-conjugated peptide 2 μM, 1 h at 37° C., MOG35-55 T-cells
Method: Resting MOG35-55 T-cells or after activation for 72 h with MOG35-55 and APC were blocked with 1% BSA at room temperature to block non-specific binding. After 30 min the cells were washed and divided into aliquots containing 100,000 cells per 100 μl, and either gp41 TMD or a control membrane-binding amphipathic peptide (AMP-scr) was added (final concentration of 2 μM) for 1 h at 37° c. The cells were then washed and labeled with the tested antibody for 25 min at RT followed by biotin-conjugated anti-hamster IgG 25 min at RT and Streptavidin PE-Cy-5 10 min at RT (eBioscience San-Diego Calif., USA). Anti-hamster IgG followed by Streptavidin-Cy-5 served as a measure of non-specific binding amphipathic (AMP) peptide served as low TCR affinity control. The cells were analyzed by confocal fluorescence microscopy using Lab-Tek 8 chambers cover-glass (nunc) with living cells. The labeled cell samples were observed under a fluorescence confocal microscope. PE-Cy-5 excitation was done with HeNe laser 633 nm (emission data was collected with filter BA660IF, 660 nm long pass). NBD excitation was done with Ar laser 488 nm (emission data was collected from 505-525 nm). The co-localization percentage was quantified suing the “Simple PCI” software, and calculated as: (Co-localization fluorescence/NBD fluorescence)×100=co-localization percentage. […]

[5] = system: RAW264.7 macrophage cells; test: TNFα secretion from RAW264.7 macrophages (ELISA); format: cell-based; settings: peptide 20 μM for 2 hours
Method: RAW264.7 macrophage cells were plated in a 96 well plate at a concentration of 20,000 cells per well and grown over-night in RPMI medium supplemented with 10% FBS and 1% Pen-Strep and 1% L-glutamine at 37 degrees with 5% CO2. The following day media was changed and the gp41 TMD peptide was added at a concentration of 20 μM—dissolved in DMSO and diluted 1:100. The cells were incubated in the presence of the peptide for 2 hours afterwards the media was removed and cells were washed twice with 100 μl of fresh media. Lipopolysaccharide (LPS) and Lipoteichoic acid (LTA) ligands were added for 5 hours (LPS was added at the concentration of 10 ng/ml and LTA added at 500 ng/ml; cells were grown at this time with 200 μl). After 5 hours 150 were taken for the measurement of TNFα by an ELISA kit.
RAW264.7 macrophages were grown in the presence of gp41 TMD peptides for 2 hours at a concentration of 20 μM. As controls, RAW264.7 macrophages were grown in the presence of GGG peptides or in the absence of peptides (FIG. 10, GGG and Control, respectively). Thereafter, the medium was washed twice and 500 ng/ml of LTA or 10 ng/ml of LPS was added for 5 hours. In order to evaluate TNFα levels an ELISA assay was performed. Results are shown normalized to the level of TNFα secretion induced by the ligands in the absence of peptides (FIG. 10 Control). The result is an average of three measurements.

[6] = system: T cells activated by PMA/ionomycin; test: T-cell activation induced by PMA/ionomycin; format: cell-based, mice
Method: as §1
PMA/ionomycin activates the T cell downstream of the membrane regardless of the presence or absence of the TCR.

[7] = biological target: T2, TCRα CP peptide (Mus musculus, UniProt P01849); test: FRET between TCRα CP-NBD and Rho labeled peptides in PC LUV; format: binding; settings: acceptor-to-lipid ratio of 1:1000
T2 construct: TCRα CP peptide was labeled with NBD, as a donor fluorophore; made in house; host or cells: chemical synthesis (Fmoc solid phase, Rink amide resin)
Method: as §2, §3
Further investigations were performed to reveal whether gp41 TMD interacts solely with CD3 or perhaps it interacts with the TCRα TMD. […] Then, the fluorescence energy transfer (FRET) was measured between fluorescently labeled TCRα CP-NBD peptide and gp41 TM-Rho, TCRα CP-Rho or TAR/PS-Rho. […]

Substance	cell survival in culture versus PBS control [1]	percent of energy transfer with TLR2-Rho [3]	inhibition of T cell activation by PMA/ionomycin [6]	also measured
GLVGLRIVF-NH2 [TM11-19, GLVGLRIVF]	same survival in culture			
KKKLFIMIVGGLVGLRIVFAVLSIKKK [gp41 TMD]	same survival in culture	over 60%	did not inhibit	inhibition of T-cell activation by mitogenic anti-CD3 antibodies [2]: inhibited; co-localization percentage with the CD3 molecules [4]: 58.8%; TNFα secretion in response to LPS ([5]; then 10 ng/ml LPS for 5 hours): reduces TNFα secretion; TNFα secretion in response to LTA ([5]; then 500 ng/ml LTA for 5 hours): inhibits TNFα secretion; inhibition of T-cell proliferation ([1]; MOG 35-55 peptide and APC, 5, 25 and 50 μg/ml peptide, 3 days, H3-thymidine uptake): dose dependent inhibition
TCRα CP-Rho: TCRα CP peptide labeled with Rho-TAMRA as an acceptor fluorophore (GLRILLLKV-NH2; also: labeled with Rho-TAMRA, position not given here)				energy transfer from TCRα CP-NBD [7]: ~37%
GLRILLLKV [TCRα CP, reference compound]			did not inhibit	
MVLGVFALLPLISGSL [TAR1p/s, reference compound]		no energy transfer was detected		
